Reference: ChEMBL document CHEMBL5380795, “Design, Synthesis, and Bioactivity Investigation of Cyclic Lipopeptide Antibiotics Containing Eight to Nine Amino Acids” (J Med Chem, 2023)
Values after ≈ are worked out from the molar mass of the structure shown. Bridge positions count the residues as written; N and C are the ends. Square brackets hold non-standard residues; d marks the D form. Peptide text beside a SMILES is read from it. * marks the point of attachment. X1 = CC[C@H](C)CCCCC(=O)*; Dab = NCC[C@H](N)C(=O)O

Assays:
[1] = tested on: Escherichia coli; test: Antibacterial activity against Escherichia coli ATCC BAA-2523 assessed as inhibition of bacterial growth incubated for 18 to 24 hrs by broth microdilution method; format: functional; settings: time 18-24 hrs
[2] = tested on: Acinetobacter baumannii; test: Antibacterial activity against oxacillinase-27 producing Acinetobacter baumannii NCTC 13304 assessed as inhibition of bacterial growth incubated for 18 to 24 hrs by broth microdilution method; format: functional; settings: time 18-24 hrs
[3] = Selectivity index, ratio of IC50 for cytotoxicity against human HK-2 cells to MIC for antibacterial activity against Escherichia coli ATCC BAA-2523; format: toxicity, cell-based
[4] = tested on: Escherichia coli; test: Antibacterial activity against Escherichia coli NCTC 13353 assessed as inhibition of bacterial growth incubated for 18 to 24 hrs by broth microdilution method; format: functional; settings: time 18-24 hrs
[5] = tested on: Staphylococcus aureus; test: Antibacterial activity against methicillin resistant Staphylococcus aureus ATCC 33591 assessed as inhibition of bacterial growth incubated for 18 to 24 hrs by broth microdilution method; format: functional; settings: time 18-24 hrs
[6] = tested on: Klebsiella pneumoniae; test: Antibacterial activity against KPC producing Klebsiella pneumoniae ATCC BAA-1705 assessed as inhibition of bacterial growth incubated for 18 to 24 hrs by broth microdilution method; format: functional; settings: time 18-24 hrs
[7] = tested on: Staphylococcus epidermidis; test: Antibacterial activity against methicillin resistant Staphylococcus epidermidis clinical isolate 19-6 assessed as inhibition of bacterial growth incubated for 18 to 24 hrs by broth microdilution method; format: functional; settings: time 18-24 hrs
[8] = tested on: Klebsiella pneumoniae; test: Antibacterial activity against carbapenem resistant Klebsiella pneumoniae clinical isolate 19-15 assessed as inhibition of bacterial growth incubated for 18 to 24 hrs by broth microdilution method; format: functional; settings: time 18-24 hrs
[9] = tested on: Staphylococcus aureus; test: Antibacterial activity against Staphylococcus aureus ATCC 29213 assessed as inhibition of bacterial growth incubated for 18 to 24 hrs by broth microdilution method; format: functional; settings: time 18-24 hrs
[10] = tested on: Klebsiella pneumoniae; test: Antibacterial activity against carbapenem resistant Klebsiella pneumoniae clinical isolate 19-17 assessed as inhibition of bacterial growth incubated for 18 to 24 hrs by broth microdilution method; format: functional; settings: time 18-24 hrs
[11] = Cytotoxicity against human HK-2 cells assessed as inhibition of cell growth incubated for 72 hrs by CCK-8 assay; format: toxicity, cell-based
[12] = tested on: Escherichia coli; test: Antibacterial activity against KPC producing Escherichia coli ATCC BAA-2340 assessed as inhibition of bacterial growth incubated for 18 to 24 hrs by broth microdilution method; format: functional; settings: time 18-24 hrs
[13] = tested on: Pseudomonas aeruginosa; test: Antibacterial activity against carbapenem resistant Pseudomonas aeruginosa clinical isolate 19-3 assessed as inhibition of bacterial growth incubated for 18 to 24 hrs by broth microdilution method; format: functional; settings: time 18-24 hrs
[14] = tested on: Pseudomonas aeruginosa; test: Antibacterial activity against Pseudomonas aeruginosa ATCC 27853 assessed as inhibition of bacterial growth incubated for 18 to 24 hrs by broth microdilution method; format: functional; settings: time 18-24 hrs
[15] = tested on: Pseudomonas aeruginosa; test: Antibacterial activity against carbapenem resistant Pseudomonas aeruginosa clinical isolate 17-1 assessed as inhibition of bacterial growth incubated for 18 to 24 hrs by broth microdilution method; format: functional; settings: time 18-24 hrs
[16] = tested on: Acinetobacter baumannii; test: Antibacterial activity against carbapenem resistant Acinetobacter baumannii clinical isolate 19-8 assessed as inhibition of bacterial growth incubated for 18 to 24 hrs by broth microdilution method; format: functional; settings: time 18-24 hrs
[17] = tested on: Pseudomonas aeruginosa; test: Antibacterial activity against Pseudomonas aeruginosa clinical isolate 19-1 assessed as inhibition of bacterial growth incubated for 18 to 24 hrs by broth microdilution method; format: functional; settings: time 18-24 hrs
[18] = tested on: Staphylococcus epidermidis; test: Antibacterial activity against methicillin resistant Staphylococcus epidermidis clinical isolate 19-5 assessed as inhibition of bacterial growth incubated for 18 to 24 hrs by broth microdilution method; format: functional; settings: time 18-24 hrs
[19] = tested on: Escherichia coli; test: Antibacterial activity against Escherichia coli clinical isolate 19-2 assessed as inhibition of bacterial growth incubated for 18 to 24 hrs by broth microdilution method; format: functional; settings: time 18-24 hrs

Compound `CCCCCCCCCC(=O)N[C@H](CCN)C(=O)N[C@H]1CCNC(=O)[C@H]([C@@H](C)O)NC(=O)[C@H](CCN)NC(=O)[C@H](CCN)NC(=O)[C@H](CC(C)C)NC(=O)[C@@H](Cc2ccc(N)cc2)NC(=O)[C@H](CCN)NC1=O` has an MIC [1] of 64 µg/mL (≈ 62.1 µM), an MIC [2] of over 64 µg/mL and a selectivity ratio [3] of 3.6. It also gave an MIC [4] of over 64 µg/mL, an MIC [5] of over 64 µg/mL and an MIC [6] of over 64 µg/mL. The MIC [7] was 32 µg/mL (≈ 31 µM), the MIC [8] was over 64 µg/mL and the MIC [9] was over 64 µg/mL. For the same compound, the MIC [10] was over 64 µg/mL, the IC50 at 72 h [11] was 228 µg/mL (≈ 221 µM) and the MIC [12] was 64 µg/mL (≈ 62.1 µM). The MIC [13] was over 64 µg/mL, the MIC [14] was over 64 µg/mL and the MIC [15] was over 64 µg/mL. It also gave an MIC [16] of over 64 µg/mL, an MIC [17] of over 64 µg/mL and an MIC [18] of 16 µg/mL (≈ 15.5 µM). For the same compound, the MIC [19] was 64 µg/mL (≈ 62.1 µM).

`CC(C)C[C@@H]1NC(=O)[C@@H](CC(C)C)NC(=O)[C@H](CCN)NC(=O)[C@@H](NC(=O)[C@@H](CCN)NC(=O)CCCCCc2ccccc2)CCNC(=O)[C@H]([C@@H](C)O)NC(=O)[C@H](CCN)NC(=O)[C@H](CCN)NC1=O` gave an MIC [1] of 16 µg/mL (≈ 16 µM), an MIC [2] of over 64 µg/mL and a selectivity ratio [3] of 19.3. For the same compound, the MIC [4] was 32 µg/mL (≈ 31.9 µM), the MIC [5] was over 64 µg/mL and the MIC [6] was 8 µg/mL (≈ 7.98 µM). For the same compound, the MIC [7] was 64 µg/mL (≈ 63.9 µM), the MIC [8] was over 64 µg/mL and the MIC [9] was over 64 µg/mL. It also gave an MIC [10] of over 64 µg/mL, an IC50 at 72 h [11] of 309 µg/mL (≈ 309 µM) and an MIC [12] of 8 µg/mL (≈ 7.98 µM). It also gave an MIC [13] of 4 µg/mL (≈ 3.99 µM), an MIC [14] of 1 µg/mL (≈ 0.998 µM) and an MIC [15] of 4 µg/mL (≈ 3.99 µM). The MIC [16] was over 64 µg/mL, the MIC [17] was 2 µg/mL (≈ 2 µM) and the MIC [18] was 8 µg/mL (≈ 7.98 µM). For the same compound, the MIC [19] was 16 µg/mL (≈ 16 µM).

Work on `CCCCCCCCCC(=O)N[C@H](CCN)C(=O)N[C@H]1CCNC(=O)[C@H](CC(=O)O)NC(=O)[C@H](CCN)NC(=O)[C@H](CCN)NC(=O)[C@H](CC(C)C)NC(=O)[C@@H](CC(C)C)NC(=O)[C@H](CCN)NC1=O` yielded an MIC [1] of over 64 µg/mL, an MIC [2] of over 64 µg/mL and a selectivity ratio [3] of under 5.4. It also gave an MIC [4] of over 64 µg/mL, an MIC [5] of over 64 µg/mL and an MIC [6] of over 64 µg/mL. The MIC [7] was over 64 µg/mL, the MIC [8] was over 64 µg/mL and the MIC [9] was over 64 µg/mL. It also gave an MIC [10] of over 64 µg/mL, an IC50 at 72 h [11] of 347 µg/mL (≈ 349 µM) and an MIC [12] of over 64 µg/mL. The MIC [13] was over 64 µg/mL, the MIC [14] was over 64 µg/mL and the MIC [15] was over 64 µg/mL. For the same compound, the MIC [16] was over 64 µg/mL, the MIC [17] was over 64 µg/mL and the MIC [18] was over 64 µg/mL. For the same compound, the MIC [19] was over 64 µg/mL.

For `CC[C@H](C)CCCCC(=O)N[C@@H](CCN)C(=O)N[C@H](C(=O)N[C@@H](CCN)C(=O)N[C@H]1CCNC(=O)[C@H]([C@@H](C)O)NC(=O)[C@H](CCN)NC(=O)[C@H](CCN)NC(=O)[C@H](CC(C)C)NC(=O)[C@@H](Cc2ccccc2)NC(=O)[C@H](CCN)NC1=O)[C@@H](C)O` (X1-[Dab]T[Dab][Dab][Dab][dF]L[Dab][Dab]T; lactam 4-C), the selectivity ratio [3] was over 932 and the IC50 at 72 h [11] was 55.9 µg/mL (≈ 46.4 µM).

With `CCCCCCCCCC(=O)N[C@H](CCN)C(=O)N[C@H]1CCNC(=O)[C@H]([C@@H](C)O)NC(=O)[C@H](CCN)NC(=O)[C@H](CCN)NC(=O)[C@H](CC(=O)O)NC(=O)[C@@H](CC(C)C)NC(=O)[C@H](CCN)NC1=O` the MIC [1] was over 64 µg/mL, the MIC [2] was over 64 µg/mL and the MIC [4] was over 64 µg/mL. The MIC [5] was over 64 µg/mL, the MIC [6] was over 64 µg/mL and the MIC [7] was over 64 µg/mL. It also gave an MIC [8] of over 64 µg/mL, an MIC [9] of over 64 µg/mL and an MIC [10] of over 64 µg/mL. For the same compound, the IC50 at 72 h [11] was over 500 µg/mL, the MIC [12] was over 64 µg/mL and the MIC [13] was over 64 µg/mL. The MIC [14] was over 64 µg/mL, the MIC [15] was over 64 µg/mL and the MIC [16] was over 64 µg/mL. It also gave an MIC [17] of over 64 µg/mL, an MIC [18] of over 64 µg/mL and an MIC [19] of over 64 µg/mL.

Work on `CCCCCCCCCC(=O)N[C@H](CCN)C(=O)N[C@H]1CNC(=O)[C@H]([C@@H](C)O)NC(=O)[C@H](CCN)NC(=O)[C@H](CCN)NC(=O)[C@H](CC(C)C)NC(=O)[C@@H](CC(C)C)NC(=O)[C@H](CCN)NC1=O` yielded an MIC [1] of under 64 µg/mL, an MIC [2] of over 64 µg/mL and an MIC [4] of over 64 µg/mL. For the same compound, the MIC [5] was over 64 µg/mL, the MIC [6] was over 64 µg/mL and the MIC [7] was 32 µg/mL (≈ 33 µM). For the same compound, the MIC [8] was over 64 µg/mL, the MIC [9] was over 64 µg/mL and the MIC [10] was over 64 µg/mL. It also gave an IC50 at 72 h [11] of 68.6 µg/mL (≈ 70.8 µM), an MIC [12] of over 64 µg/mL and an MIC [13] of over 64 µg/mL. It also gave an MIC [14] of over 64 µg/mL, an MIC [15] of over 64 µg/mL and an MIC [16] of over 64 µg/mL. It also gave an MIC [17] of over 64 µg/mL, an MIC [18] of 1 µg/mL (≈ 1.03 µM) and an MIC [19] of over 64 µg/mL.
